In ChEMBL document CHEMBL3987221, “The Australian National University Dept Of Immunology Pathogen Box Compounds Screened” (2018) one finds inhibition data, which are given here for 55 molecules.

The target of assay [1] is T1, Ferrochelatase, mitochondrial (Homo sapiens) (UniProt P22830).
T1 sequence (whole entry): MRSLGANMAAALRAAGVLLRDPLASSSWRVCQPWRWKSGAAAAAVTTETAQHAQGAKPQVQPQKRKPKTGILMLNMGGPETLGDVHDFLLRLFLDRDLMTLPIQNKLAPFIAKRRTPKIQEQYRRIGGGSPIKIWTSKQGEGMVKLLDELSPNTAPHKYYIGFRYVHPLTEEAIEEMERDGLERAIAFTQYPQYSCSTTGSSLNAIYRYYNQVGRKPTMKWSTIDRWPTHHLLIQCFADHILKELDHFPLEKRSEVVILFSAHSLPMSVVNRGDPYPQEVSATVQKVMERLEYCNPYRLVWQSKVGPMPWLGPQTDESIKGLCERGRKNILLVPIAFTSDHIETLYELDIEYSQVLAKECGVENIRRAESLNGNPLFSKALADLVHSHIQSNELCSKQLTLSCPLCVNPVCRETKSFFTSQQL
The following applies: at 10 µM.
Description: Compound was evaluated for the inhibition of human FECH at 10uM

Assay [2] has as its target T2, Porphobilinogen deaminase (Homo sapiens) (UniProt P08397).
T2 sequence (whole entry): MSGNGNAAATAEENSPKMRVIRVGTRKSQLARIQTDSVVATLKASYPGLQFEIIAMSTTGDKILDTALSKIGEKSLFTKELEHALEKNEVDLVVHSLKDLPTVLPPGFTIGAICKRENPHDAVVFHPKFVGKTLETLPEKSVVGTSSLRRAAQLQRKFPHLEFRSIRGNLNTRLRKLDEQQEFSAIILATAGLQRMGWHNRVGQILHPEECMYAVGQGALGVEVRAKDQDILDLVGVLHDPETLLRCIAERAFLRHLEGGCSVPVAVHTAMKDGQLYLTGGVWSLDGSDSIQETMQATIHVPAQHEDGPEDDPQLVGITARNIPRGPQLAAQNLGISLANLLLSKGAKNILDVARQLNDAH
The following applies: at 100 µM.
Description: Compound was evaluated for the inhibition of human HMBS at 100uM

The source made the active and inactive calls. How the calls were made is not given here.

For the molecule `CN(C)c1cc(NC(=O)Nc2ccccc2)c2ccccc2n1`, the inhibition result in assay [1] and in assay [2] was “inactive” throughout.
Consider `CC(C)(C)[C@H]1CC[C@H](CC2=C(O)C(=O)c3ccccc3C2=O)CC1`, for which the inhibition result in assay [1] and in assay [2] was “inactive” throughout.
`Cc1ccc(NC(=O)c2nc[nH]c2C(=O)Nc2nc3ccccc3[nH]2)c(C)c1`: the inhibition result in assay [1] and in assay [2] was “inactive” each time.
For `N#Cc1ccc(-c2ccc(OCC(N)=O)cc2)cc1`, the inhibition result in assay [1] and in assay [2] was “inactive” in each case.
With `NCCCC(N)(C(=O)O)C(F)F` (stereo not given), the inhibition result in assay [1] and in assay [2] was “inactive” throughout.
For the molecule `COC(=O)C1=C(C)NC(C)=C(C(=O)OC(C)C)C1c1cccc2nonc12` (stereo not given), the inhibition entry in assay [1] and in assay [2] was “inactive” each time.
Take `NC(=O)c1cc(Br)ccc1OCCOc1ccccc1`: the inhibition entry in assay [1] and in assay [2] was “inactive” in each case.
For `CO/N=C(\C(=O)OC)c1ccccc1CO/N=C(\C)c1cccc(C(F)(F)F)c1`, the inhibition entry in assay [1] and in assay [2] was “inactive” in each case.
For the molecule `CC1=NN(c2nc3ccccc3s2)C(=O)C1Cc1cccc2ccccc12` (stereo not given), the inhibition entry in assay [1] and in assay [2] was “inactive” throughout.
As for `CC(=O)Nc1ccc(NC(=O)c2cc(-c3cc(Cl)ccc3O)n[nH]2)cc1`, the inhibition entry in assay [1] and in assay [2] was “inactive” throughout.
Take `CS(=O)(=O)c1ccc(C(=O)N(CC2CCCO2)c2nc3ccccc3s2)cc1[N+](=O)[O-]` (stereo not given): the inhibition result in assay [1] and in assay [2] was “inactive” throughout.
In the case of `Cc1cc(NCCc2ccccc2)nc(NC(=N)Nc2ccc(Cl)cc2)n1`, the inhibition entry in assay [1] and in assay [2] was “inactive” in each case.
Turning to `C[C@H]1c2cccc(O)c2C(=O)C2=C(O)[C@]3(O)C(=O)C(C(N)=O)=C(O)[C@@H](N(C)C)[C@@H]3[C@@H](O)[C@@H]21`, the inhibition result in assay [1] and in assay [2] was “inactive” throughout.
Take `Nc1nc(N)c2c3c(sc2n1)CN(Cc1ccccc1)CC3`: the inhibition entry in assay [1] and in assay [2] was “inactive” each time.
For `CN(C)CCNC(=O)N1CCCN(c2ncnc3cc(-c4ccccc4)sc23)CC1`, the inhibition result in assay [1] and in assay [2] was “inactive” throughout.
With `Cc1ccc2nc(C)c(-c3ccn(Cc4ccccc4)n3)n2c1`, the inhibition entry in assay [1] and in assay [2] was “inactive” in each case.
On to `Cc1nc(-c2cccc(NCc3ccccc3)c2)[nH]c1C`, for which the inhibition result in assay [1] and in assay [2] was “inactive” each time.
Regarding `CN1CCN(CCCOc2ncc(Nc3ncc(-c4ccc(C(F)(F)F)c(F)c4)nc3C(N)=O)cn2)CC1`, the inhibition result in assay [1] and in assay [2] was “inactive” throughout.
For `Cc1ccc(S(=O)(=O)N2CCN(C(=O)c3cc(-c4ccccc4)n[nH]3)CC2)cc1`, the inhibition entry in assay [1] and in assay [2] was “inactive” throughout.
`CC(C)(C)C(=O)N(CCCCCCN1C[C@H](O)[C@@H](O)[C@H](O)[C@H]1CO)C1CCCCCC1`: the inhibition entry in assay [1] and in assay [2] was “inactive” in each case.
`Cc1cccc(C(=O)Nc2ccnc(N(C)C3CCN(CC(C)C)CC3)c2)c1`: the inhibition result in assay [1] and in assay [2] was “inactive” throughout.
For the molecule `Cc1ccc2cc(C3NC(=O)c4ccccc4N3)c(Cl)nc2c1` (stereo not given), the inhibition entry in assay [1] and in assay [2] was “inactive” in each case.
On to `COc1cc(CN2CCC3(C=Cc4ccccc43)CC2)cc2c1OCO2`, for which the inhibition result in assay [1] and in assay [2] was “inactive” throughout.
Regarding `CNCCC(Oc1ccc(C(F)(F)F)cc1)c1ccccc1` (stereo not given), the inhibition result in assay [1] and in assay [2] was “inactive” throughout.
Turning to `CS(=O)(=O)c1cccc(-c2cnc3[nH]cc(-c4ccc(CCC(=O)O)cc4)c3c2)c1`, the inhibition result in assay [1] and in assay [2] was “inactive” throughout.
For `Cc1nc(-c2ccccn2)nc(NCCc2ccc(S(C)(=O)=O)cc2)c1Cl`, the inhibition entry in assay [1] and in assay [2] was “inactive” each time.
Turning to `COc1ccc(N(CCc2cccc(C)n2)C(=O)C2CCCCC2)cc1`, the inhibition entry in assay [1] and in assay [2] was “inactive” throughout.
Consider `c1ccc2c(c1)CN(CC1CC1)CC1(CCN(Cc3c[nH]c4cnccc34)CC1)O2`, for which the inhibition result in assay [1] and in assay [2] was “inactive” in each case.
For `c1ccc(-c2nc(NC3CCCCC3)cc(C3CC3)n2)nc1`, the inhibition entry in assay [1] and in assay [2] was “inactive” each time.
As to `COc1ccc(-c2cnc3ccc(NCc4ccc(S(N)(=O)=O)cc4)nn23)cn1`, the inhibition entry in assay [1] and in assay [2] was “inactive” throughout.
In the case of `FC(F)(F)c1cccc(-c2nc3c(NCc4ccncc4)nccc3[nH]2)c1`, the inhibition entry in assay [1] and in assay [2] was “inactive” throughout.
As to `Cc1nnc(NC(=O)c2cn(-c3ccccc3)nc2-c2ccccc2C)o1`, the inhibition entry in assay [1] and in assay [2] was “inactive” each time.
For the molecule `CC1CC1C(=O)NC1CCN(CC2(c3ccccc3)CCCCC2)CC1` (stereo not given), the inhibition result in assay [1] and in assay [2] was “inactive” throughout.
Take `Cc1cc(Nc2ccncc2)n2nc(C)c(-c3ccccc3Cl)c2n1`: the inhibition entry in assay [1] and in assay [2] was “inactive” throughout.
Regarding `CC1=Nc2ccc(Cl)cc2C(O)(c2ccc(C)cc2)N1CCN1CCCCC1` (stereo not given), the inhibition result in assay [1] and in assay [2] was “inactive” throughout.
`CN1CCN(c2nccc3[nH]c(-c4cccc(F)c4)cc23)CC1`: the inhibition entry in assay [1] and in assay [2] was “inactive” in each case.
On to `COc1cccc(OC)c1C(=O)Nc1ccc(Cl)c(-c2nc3ccccc3s2)c1`, for which the inhibition entry in assay [1] and in assay [2] was “inactive” in each case.
On to `NS(=O)(=O)c1cccc(-c2ccc3ncc(N4CCOCC4)nc3c2)c1`, for which the inhibition result in assay [1] and in assay [2] was “inactive” in each case.
On to `CCS(=O)(=O)N(Cc1ccco1)Cc1cc2ccc(C)cc2nc1O`, for which the inhibition entry in assay [1] and in assay [2] was “inactive” in each case.
With `COC(=O)c1cccc2oc(-c3cccc(OC)c3NC(=O)c3cc(-c4ccccc4)on3)nc12`, the inhibition result in assay [1] and in assay [2] was “inactive” each time.
In the case of `O=C(NCc1ccco1)N1CCN(Cc2ccc(Cl)s2)CC1`, the inhibition result in assay [1] and in assay [2] was “inactive” in each case.
As for `O=C(c1ccco1)N(CCCn1ccnc1)c1nc2c(Cl)cccc2s1`, the inhibition result in assay [1] and in assay [2] was “inactive” each time.
For the molecule `CC(C)(C)c1ccc(N[C@@H]2CCCC[C@H]2NC(=O)c2ccco2)cc1`, the inhibition entry in assay [1] and in assay [2] was “inactive” throughout.
As for `Cc1cccc(NC(=O)c2cc(S(=O)(=O)N(C)c3ccc(F)cc3)ccc2Cl)n1`, the inhibition entry in assay [1] and in assay [2] was “inactive” in each case.
On to `CCOc1ccc2cc(-c3nn(CC4CCN(C)CC4)c4ncnc(N)c34)ccc2c1`, for which the inhibition entry in assay [1] and in assay [2] was “inactive” in each case.
For `CCOc1ccc(OCC(=O)Nc2cc(C)cc(C)c2)cc1`, the inhibition entry in assay [1] and in assay [2] was “inactive” in each case.
For the molecule `O=C(NCCN1CCCC1)c1cc(NCCCCN2CCC(F)(F)CC2)nc2ccc(Cl)cc12`, the inhibition result in assay [1] and in assay [2] was “inactive” throughout.
As to `COc1cccc(OCC(=O)c2ccc(Br)cc2)c1`, the inhibition entry in assay [1] and in assay [2] was “inactive” each time.
Consider `CNC(=O)c1nn(C)c2c1C(C)(C)Cc1cnc(Nc3ccc(N4CCN(C)CC4)cc3)nc1-2`, for which the inhibition result in assay [1] and in assay [2] was “inactive” in each case.
As for `Cc1ccc(NC(=O)CC2COc3ccccc3O2)cc1Cl` (stereo not given), the inhibition entry in assay [1] and in assay [2] was “inactive” throughout.
For the molecule `Cc1cc(C(=O)Nc2cnn(Cc3ccc(Cl)cc3Cl)c2)no1`, the inhibition entry in assay [1] and in assay [2] was “inactive” throughout.
With `CC(=O)N(CCN(C(=O)c1ccc(F)cc1)c1ccccc1)c1ccccc1`, the inhibition result in assay [1] and in assay [2] was “inactive” each time.
`CC(C)C(C(=O)Nc1ccc(S(=O)(=O)N(C)C)cc1)c1ccc(Cl)cc1` (stereo not given): the inhibition result in assay [1] and in assay [2] was “inactive” throughout.
As for `CCc1nc2ccccc2n1CC(O)COc1cc(C)ccc1Cl` (stereo not given), the inhibition entry in assay [1] and in assay [2] was “inactive” in each case.
For the molecule `CN1CCCN(C(c2ccccc2)c2ccc(Cl)cc2)CC1` (stereo not given), the inhibition entry in assay [1] and in assay [2] was “inactive” throughout.
